# Reference: publication PMC13206195, “Low‐dose cannabidiol increases plasma concentrations of amitriptyline: A clinical drug–drug interaction study” (British Journal of Clinical Pharmacology, 2025)
# Read-outs that look alike come from different tables or passages of the source.
# Legend:
# [1] = Plasma pharmacokinetics (non-compartmental analysis) in open-label, fixed-sequence, 2-way crossover study in healthy participants; conditions: for Clast, Geometric mean / Clast, Mean / Clast, Median / tlag, Median / tmax, Median / AUC(0-t) / Cmax / AUClast, Geometric mean / AUClast, Mean / AUClast, Median / Cmax, Geometric mean / Cmax, Mean / Cmax, Median: fasted, plasma; for AUC(0-t) / Cmax: po; for AUC(0-t): AUClast
# Method: (§1) This study was an open‐label, fixed sequence, 2‐way crossover study in 13 healthy participants. On Day 1, 25 mg amitriptyline and 50 mg tramadol were orally administered concurrently, followed by a wash‐out period of at least 7 days. On Day 8, 30 mg of oral CBD oil was administered 1 h prior to amitriptyline and tramadol. On Days 1 and 8, participants presented to the clinical research unit in the morning and were discharged in the evening, briefly returning in the morning of Days 2 and 9 for pharmacokinetic sampling.
# The cannabidiol formulation used in this study was Clinican®, an almond oil‐based formulation containing 10% cannabidiol and manufactured by Clinical Cannabis Care (Breukelen, the Netherlands) and administered orally with 240 mL of water following an overnight fast. Single doses of 30 mg CBD were administered. […] Furthermore, we estimated that the 30 mg CBD dose is at the upper end of the range of CBD intake of patients who use CBD‐rich varieties of medicinal cannabis (or formulations containing THC and CBD, like Sativex®) for treatment of neuropathic pain symptoms,[23] and as well as an approximately median dose for OTC CBD users. Cannabidiol was administered one hour prior to amitriptyline and tramadol (during visit 2 only) to offset the slower absorption expected from an oil‐based cannabinoid formulation, compared to the victim drugs.
# Generic oral formulations of tramadol (50 mg tramadol hydrochloride capsule) and amitriptyline (25 mg hydrochloride tablet) were used in this study. These doses were at the low end of the therapeutic range, allowing for a safety margin for possible increases in plasma concentrations when co‐administered with CBD. Tramadol and amitriptyline were not known to induce or inhibit CYP‐enzymes in general, and no specific pharmacokinetic interactions between the two victim drugs were known to the investigators. […] However, this risk was deemed clinically irrelevant when low, single doses were administered to healthy volunteers. Based on these consideration regarding pharmacokinetics and safety, the two victim drugs were administered together in a cocktail design.
# Sampling for pharmacokinetics was performed pre‐dose and at 1, 2, 3, 4, 5, 6, 8, 12 and 24 h following the administration of amitriptyline and tramadol. Approximately 4 mL blood was collected via an i.v. catheter placed in an antecubital vein in the arm in polypropylene K2EDTA tubes. Following collection, samples were immediately cooled on ice. Within 30 min of collection, plasma was separated by centrifugation at approximately 2000 g for 10 min and promptly transferred into amber glass vials and stored at […]. The samples were analysed by the iC42 Laboratory (Department of Anesthesiology, University of Colorado, Aurora, Colorado, USA). CBD and CBD metabolites were analysed using a validated assay that was previously published (CBD metabolite concentrations not reported in this manuscript).[33] Concentrations of amitriptyline, nortriptyline, tramadol and O‐desmethyltramadol were determined using a validated assay that was based on a previously published high‐performance liquid chromatography tandem mass spectrometry (HPLC‐MS/MS) method.[34] Details regarding the bioanalytical assays used to measure CBD, amitriptyline, nortriptyline, tramadol and O‐desmethyltramadol are located in the Supplementary Materials section.
# R 3.6.1 for Windows (R Foundation for Statistical Computing/R development Core Team, Vienna, Austria, 2019), PKNCA package version 0.9.5, was used to calculate pharmacokinetic parameters. PK parameter calculations were based on actual sampling time.
# [2] = cited from earlier work; for mean (SD) AUC: previous trial
# [3] = cited from earlier work
# [4] = clinical
# Method: as §1
# To establish whether significant treatment effects could be detected, the PK parameters were compared with a mixed effects model analysis of variance (ANOVA) with treatment as a fixed factor and participants as a random factor on log‐transformed data. The general treatment effect and specific contrasts were reported with the estimated difference and the 95% confidence interval, the least square mean estimates and the p‐value. All calculations were performed using SAS for Windows V9.4 (SAS Institute, Inc., Cary, NC, USA).
# [5] = tested on: CYP2D6; conditions: cited from earlier work
# [6] = tested on: CYP3A4 and CYP2B6; conditions: cited from earlier work
# [7] = Visit 2 (Day 8): 30 mg CBD oral 1 h prior to 25 mg amitriptyline + 50 mg tramadol, N=12
# [8] = human, in vivo, Geometric mean, Visit 2 (Day 8): 30 mg CBD oral 1 h prior to 25 mg amitriptyline + 50 mg tramadol, N=12
# [9] = human, in vivo, Mean, Visit 2 (Day 8): 30 mg CBD oral 1 h prior to 25 mg amitriptyline + 50 mg tramadol, N=12
# [10] = human, in vivo, Median, Visit 2 (Day 8): 30 mg CBD oral 1 h prior to 25 mg amitriptyline + 50 mg tramadol, N=12
# [11] = Visit 1 (Day 1): 25 mg amitriptyline + 50 mg tramadol oral, no CBD, N=13
# [12] = human, in vivo, Geometric mean, Visit 1 (Day 1): 25 mg amitriptyline + 50 mg tramadol oral, no CBD, N=13
# [13] = human, in vivo, Mean, Visit 1 (Day 1): 25 mg amitriptyline + 50 mg tramadol oral, no CBD, N=13
# [14] = human, in vivo, Median, Visit 1 (Day 1): 25 mg amitriptyline + 50 mg tramadol oral, no CBD, N=13
# [15] = Visit 1: without CBD, mixed effects model on log-transformed data
# [16] = Visit 2 (with 30 mg CBD) vs Visit 1 (without CBD)
# [17] = Visit 2: with 30 mg CBD, mixed effects model on log-transformed data
# [18] = Visit 1 (Day 1), no CBD, based on AUClast, corrected for molecular weight ratio, N=13
# [19] = Visit 2 (Day 8), 30 mg CBD 1 h prior, based on AUClast, corrected for molecular weight ratio, N=12
compound,measurement,setting,value
C=C(C)[C@@H]1CCC(C)=C[C@H]1c1c(O)cc(CCCCC)cc1O [Cannabidiol],"Clast, Geometric mean",[1]; [7],1.0 ng/mL
same,"Clast, Mean",[1]; [7],1.1 ng/mL
same,"Clast, Median",[1]; [7],1.1 ng/mL
same,"tlag, Median",[1]; [7],0.0 h
same,"tmax, Median",[1]; [7],2.0 h
same,AUC(0-t),[1]; [8],5.3 ng·h/mL
same,AUC(0-t),[1]; [9],6.9 ng·h/mL
same,AUC(0-t),[1]; [10],6.2 ng·h/mL
same,Cmax,[1]; [8],2.9 ng/mL
same,Cmax,[1]; [9],3.5 ng/mL
same,Cmax,[1]; [10],3 ng/mL
same,terminal half‐life,[2],~ 60 h
same,mean±SD Cmax,"[3]; previous study, 30 mg CBD tablet formulation after semi-standardized light breakfast",5.6 ± 4.6 ng/mL
CNCCC=C1c2ccccc2CCc2ccccc21 [Nortriptyline],"MPR (metabolite to parent ratio), Geometric mean","[1]; human, in vivo",0.57
same,"MPR (metabolite to parent ratio), Mean","[1]; human, in vivo",0.62
same,"MPR (metabolite to parent ratio), Median","[1]; human, in vivo",0.60
same,AUC(0-t),"[4]; human, in vivo",75.3 ng·h/mL
same,"Clast, back transformed LSM Visit 1","[4]; human, in vivo",3.30
same,Cmax,"[4]; human, in vivo",4.36 ng/mL
same,AUC(0-t),"[4]; human, in vivo, 30 mg",79.5 ng·h/mL
same,Cmax,"[4]; human, in vivo, 30 mg",4.51 ng/mL
same,terminal half‐life,[2],~ 26 h
CN(C)CCC=C1c2ccccc2CCc2ccccc21 [Amitriptyline],baseline amitriptyline concentration,"[1]; human, in vivo",0.85 ng/mL
same,AUC(0-t),"[4]; human, in vivo",139 ng·h/mL
same,"Clast, back transformed LSM Visit 1","[4]; human, in vivo",3.40
same,Cmax,"[4]; human, in vivo",12.3 ng/mL
same,AUC(0-t),"[4]; human, in vivo, 30 mg",156 ng·h/mL
same,Cmax,"[4]; human, in vivo, 30 mg",14.5 ng/mL
same,terminal half‐life,[2],~ 25 h
same,mean (SD) AUC,[2]; 28 participants dosed with 10 mg of amitriptyline,156 (87.8) ng*h/mL
11‐OH‐THC,increase of mean AUC by 30 mg CBD,[3]; 30 mg CBD administered 30 min before THC,71%
COc1cccc(C2(O)CCCCC2CN(C)C)c1 (stereo not drawn) [Tramadol],"Clast, Geometric mean",[1]; [11],7.4 ng/mL
same,"Clast, Mean",[1]; [11],8.9 ng/mL
same,"Clast, Median",[1]; [11],8.4 ng/mL
same,"tlag, Median",[1]; [11],0.0 h
same,"Clast, Geometric mean",[1]; [7],6.8 ng/mL
same,"Clast, Mean",[1]; [7],8.7 ng/mL
same,"Clast, Median",[1]; [7],8.0 ng/mL
same,"tlag, Median",[1]; [7],0.0 h
same,AUC(0-t),[1]; [12],1130 ng·h/mL
same,AUC(0-t),[1]; [8],1150 ng·h/mL
same,AUC(0-t),[1]; [13],1170 ng·h/mL
same,AUC(0-t),[1]; [9],1210 ng·h/mL
same,AUC(0-t),[1]; [14],1240 ng·h/mL
same,AUC(0-t),[1]; [10],1160 ng·h/mL
same,Cmax,[1]; [12],137 ng/mL
same,Cmax,[1]; [8],150 ng/mL
same,Cmax,[1]; [13],141 ng/mL
same,Cmax,[1]; [9],153 ng/mL
same,Cmax,[1]; [14],135 ng/mL
same,Cmax,[1]; [10],155 ng/mL
same,"Clast, back transformed LSM Visit 1",[4]; [15],7.41
same,"AUClast, Ratio of LSMs",[4]; [16],1.04
same,"Clast, Ratio of LSMs",[4]; [16],0.97
same,"Cmax, Ratio of LSMs",[4]; [16],1.10
same,"Clast, back transformed LSM Visit 2",[4]; [17],7.16
same,AUC(0-t),"[4]; human, in vivo",1130 ng·h/mL
same,Cmax,"[4]; human, in vivo",137 ng/mL
same,AUC(0-t),"[4]; human, in vivo, 30 mg",1180 ng·h/mL
same,Cmax,"[4]; human, in vivo, 30 mg",151 ng/mL
same,terminal half‐life,[2],5 to 6 h
same,proportion of tramadol converted into O‐desmethyltramadol (O‐DSMT) by CYP2D6,[5],approximately 80%
same,proportion of tramadol converted into N‐desmethyltramadol (N‐DSMT) by CYP3A4 and CYP2B6,[6],approximately 20%
CN(C)C[C@H]1CCCC[C@]1(O)c1cccc(O)c1 [O‐desmethyltramadol],"MPR (metabolite to parent ratio), Geometric mean",[1]; [18],0.37
same,"MPR (metabolite to parent ratio), Mean",[1]; [18],0.40
same,"MPR (metabolite to parent ratio), Median",[1]; [18],0.33
same,"AUClast, Geometric mean",[1]; [11],400.4 ng·h/mL
same,"AUClast, Mean",[1]; [11],412.0 ng·h/mL
same,"AUClast, Median",[1]; [11],388.6 ng·h/mL
same,"Clast, Geometric mean",[1]; [11],4.4 ng/mL
same,"Clast, Mean",[1]; [11],4.8 ng/mL
same,"Clast, Median",[1]; [11],4.1 ng/mL
same,"Cmax, Geometric mean",[1]; [11],35.0 ng/mL
same,"Cmax, Mean",[1]; [11],36.7 ng/mL
same,"Cmax, Median",[1]; [11],31.1 ng/mL
same,"tlag, Median",[1]; [11],0.0 h
same,"tmax, Median",[1]; [11],3.0 h
same,"MPR (metabolite to parent ratio), Geometric mean",[1]; [19],0.37
same,"MPR (metabolite to parent ratio), Mean",[1]; [19],0.39
same,"MPR (metabolite to parent ratio), Median",[1]; [19],0.32
same,"AUClast, Geometric mean",[1]; [7],399.5 ng·h/mL
same,"AUClast, Mean",[1]; [7],411.1 ng·h/mL
same,"AUClast, Median",[1]; [7],396.1 ng·h/mL
same,"Clast, Geometric mean",[1]; [7],4.0 ng/mL
same,"Clast, Mean",[1]; [7],4.4 ng/mL
same,"Clast, Median",[1]; [7],3.9 ng/mL
same,"Cmax, Geometric mean",[1]; [7],37.6 ng/mL
same,"Cmax, Mean",[1]; [7],39.5 ng/mL
same,"Cmax, Median",[1]; [7],33.6 ng/mL
same,"tlag, Median",[1]; [7],0.0 h
same,"tmax, Median",[1]; [7],2.5 h
same,"MPR, back transformed LSM Visit 1","[4]; Visit 1: without CBD, metabolite to parent ratio",0.37
same,"AUClast, back transformed LSM Visit 1",[4]; [15],400.41
same,"Clast, back transformed LSM Visit 1",[4]; [15],4.43
same,"Cmax, back transformed LSM Visit 1","[4]; Visit 1: without CBD, mixed effects model on log-transformed data, in ng/mL",34.99
same,"AUClast, Ratio of LSMs",[4]; [16],0.99
same,"Clast, Ratio of LSMs",[4]; [16],0.91
same,"Cmax, Ratio of LSMs",[4]; [16],1.05
same,"MPR, Ratio of LSMs",[4]; [16],0.95
same,"MPR, back transformed LSM Visit 2","[4]; Visit 2: with 30 mg CBD, metabolite to parent ratio",0.36
same,"AUClast, back transformed LSM Visit 2",[4]; [17],396.86
same,"Clast, back transformed LSM Visit 2",[4]; [17],4.04
same,"Cmax, back transformed LSM Visit 2","[4]; Visit 2: with 30 mg CBD, mixed effects model on log-transformed data, in ng/mL",36.84
same,terminal half‐life,[2],~ 7 h
same,mean (SD) AUC,[2]; 25 participants dosed with 100 mg tramadol,669 (181) ng*h/mL
